Assay results from US10517889B2, “Modulators of SMAD7 expression” (Ionis Pharmaceuticals, Inc., priority 2017, dated 2019).
Strand notation (5' to 3'): a small letter for the sugar, then the base; units joined by * are phosphorothioate-linked, units joined directly phosphodiester-linked; [ ] holds rarer units or linkages, { } end groups; capitals alone tell only the bases. e = 2'-O-(2-methoxyethyl) (MOE); [5mC] = 5-methylcytosine; d = 2'-deoxy (DNA)

Assays:
Type in all cases: cell-based
human SMAD7 mRNA [1] = assay: Dose-dependent inhibition of human SMAD7 mRNA expression in Hep3B cells (Example 3, Study 1 and 2); settings: electroporation; for % inhibition of SMAD7 mRNA expression: approximately 16 hours
In short: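 Hep3B cells, 20,000 per well, electroporated with antisense oligonucleotide at 0.31, 1.25, 5.00 or 20.00 μM (first series) or 0.74, 2.22, 6.67 or 20.00 μM (second series). After ~16 h, SMAD7 mRNA measured by RT-qPCR (RTS5062), normalised to RIBOGREEN total RNA. Percent inhibition vs untreated cells; IC50 derived.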

human SMAD7 mRNA [2] = assay: Antisense inhibition of human SMAD7 mRNA expression in Hep3B cells by 5-10-5 MOE gapmers, single concentration, electroporation, RT-PCR (Example 1, Study 1 and 2)
In short: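 Readout is percent SMAD7 mRNA inhibition versus untreated cells, measured by qRT-PCR (RTS5062) and corrected for total RNA by RIBOGREEN. Oligonucleotide, 5,000 nM or 15,000 nM, was delivered by electroporation into Hep3B cells at 20,000 per well. RNA was collected about 24 h later.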

human SMAD7 mRNA [3] = assay: Antisense inhibition of human SMAD7 mRNA expression in Hep3B cells by 3-10-3 cEt gapmers, 10,000 nM, electroporation (Example 2); settings: Hep3B cells, electroporation with 10,000 nM antisense oligonucleotide, approximately 24 hours, primer probe set RTS5062, relative to untreated control cells
In short: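 Percent inhibition of SMAD7 mRNA, relative to untreated cells, after ~24 h exposure of electroporated Hep3B cells to 10,000 nM cEt gapmer; levels by qRT-PCR, corrected for total RNA.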

[4] = 312.5 nM, Study 1, relative to untreated control cells
[5] = Study 2, electroporation with 15,000 nM antisense oligonucleotide, 5-10-5 MOE gapmers targeting SEQ ID NO: 1 and 2
[6] = electroporation with 15,000 nM antisense oligonucleotide (Study 2), 5-10-5 MOE gapmers targeting SEQ ID NO: 1 and 2
[7] = electroporation, 15,000 nM antisense oligonucleotide (Study 2), 5-10-5 MOE gapmers targeting SEQ ID NO: 1 and 2

Row | Substance | % inhibition of SMAD7 mRNA expression (human SMAD7 mRNA [1]; [4]) [%] | % inhibition of SMAD7 mRNA expression (human SMAD7 mRNA [1]; 1250.0 nM, Study 1) [%] | % inhibition of SMAD7 mRNA expression (human SMAD7 mRNA [1]; 5000.0 nM, Study 1) [%] | % inhibition of SMAD7 mRNA expression (human SMAD7 mRNA [1]; 20000.0 nM, Study 1) [%] | IC50 (human SMAD7 mRNA [1]; Study 1 (312.5-20000 nM)) [µM] | % Inhibition (human SMAD7 mRNA [2]; [5]) [%] | % inhibition of SMAD7 mRNA expression (human SMAD7 mRNA [2]; [7]) [%] | other results
1 | 771732 (antisense eG*eT*e[5mC]*eA*eT*dG*dT*dG*dA*dA*d[5mC]*dA*d[5mC]*dT*d[5mC]*eT*eT*eT*e[5mC]*eA) [compound 771732] | 35 | 24 | 39 | 58 | 15 | 36 |  | 
2 | 771704 (antisense e[5mC]*eA*eG*eG*eA*dG*dG*dG*dT*dA*dT*dG*d[5mC]*dA*d[5mC]*eA*e[5mC]*eT*e[5mC]*eT) [compound 771704] | 14 | 19 | 30 | 54 | > 20 |  | 32 | % Inhibition of SMAD7 mRNA (human SMAD7 mRNA [2]; [6]): 55%
3 | 771776 (antisense e[5mC]*eT*e[5mC]*eA*eG*d[5mC]*dA*dA*dG*d[5mC]*dT*d[5mC]*dA*dG*dT*eT*e[5mC]*e[5mC]*eT*eG) [compound 771776] | 10 | 13 | 36 | 67 | 9 |  | 38 | % Inhibition of SMAD7 mRNA (human SMAD7 mRNA [2]; [6]): 54%
4 | 771815 (antisense e[5mC]*eT*e[5mC]*e[5mC]*e[5mC]*dT*dT*dT*dT*d[5mC]*dA*d[5mC]*dT*dG*d[5mC]*eT*e[5mC]*e[5mC]*eA*e[5mC]) [compound 771815] | 0 | 0 | 22 | 46 | > 20 | 70 |  | 
5 | 771850 (antisense eT*e[5mC]*e[5mC]*e[5mC]*eA*d[5mC]*dT*dT*d[5mC]*dT*d[5mC]*d[5mC]*dT*d[5mC]*dT*eG*eG*e[5mC]*eT*eG) [compound 771850] | 0 | 8 | 20 | 44 | > 20 |  | 58 | 
6 | 771705 (antisense eA*eA*eT*eG*e[5mC]*d[5mC]*d[5mC]*dT*dT*dT*dG*dA*dG*dT*dT*eT*e[5mC]*e[5mC]*e[5mC]*e[5mC]) [compound 771705] | 0 | 0 | 0 | 9 |  |  | 52 | 
7 | 771641 (antisense eA*eG*eT*eT*eA*dG*dG*dT*dG*dT*d[5mC]*dA*dG*d[5mC]*d[5mC]*eT*eA*eG*eG*eA) [compound 771641] | 3 | 16 | 24 | 50 | > 20 |  |  | % inhibition of SMAD7 mRNA expression (human SMAD7 mRNA [2]; [6]): 71%
8 | 771820 (antisense eG*eG*eT*e[5mC]*eA*dA*dA*d[5mC]*dT*dT*dG*dT*dG*dG*dT*eA*eA*eA*eA*eT) [compound 771820] | 3 | 3 | 7 | 7 | > 20 | 29 |  | 
9 | 771717 (antisense eT*e[5mC]*e[5mC]*e[5mC]*eA*dT*d[5mC]*dT*dA*dT*d[5mC]*dG*dA*dA*dT*e[5mC]*eA*e[5mC]*e[5mC]*e[5mC]) [compound 771717] | 2 | 0 | 0 | 30 | > 20 |  |  | % inhibition of SMAD7 mRNA expression (human SMAD7 mRNA [2]; electroporation, 15,000 nM, approximately 24 hours, relative to untreated control cells, gapmers targeting SEQ ID NO: 1 and 2): 57%
10 | 771795 (antisense e[5mC]*eG*eT*e[5mC]*eT*dG*d[5mC]*dG*dG*d[5mC]*dA*dA*dA*dA*d[5mC]*e[5mC]*e[5mC]*eA*e[5mC]*e[5mC]) [compound 771795] | 9 | 22 | 51 | 58 | 8 | 59 |  | % inhibition of SMAD7 mRNA expression (human SMAD7 mRNA [2]; electroporation, 5,000 nM, approximately 24 hours, relative to untreated control cells, gapmers targeting SEQ ID NO: 1 and 2): 53%
11 | 771778 (antisense eT*eG*eA*eG*eT*dA*dA*dA*d[5mC]*dA*dA*dT*dA*d[5mC]*d[5mC]*e[5mC]*eT*e[5mC]*eA*eG) [compound 771778] | 48 | 0 | 37 | 55 | > 20 |  | 66 | 
12 | 771944 (antisense eG*eG*eT*eA*eA*dT*dT*dT*dT*d[5mC]*d[5mC]*dT*d[5mC]*dA*dA*e[5mC]*eA*eG*eG*e[5mC]) [compound 771944] | 0 | 34 | 35 | 48 | > 20 |  | 8 | % Inhibition of SMAD7 mRNA (human SMAD7 mRNA [2]; [6]): 50%
13 | 771670 (antisense eA*eG*eT*e[5mC]*e[5mC]*dT*dT*dT*d[5mC]*dT*d[5mC]*dT*d[5mC]*dT*d[5mC]*eA*eA*eA*eG*e[5mC]) [compound 771670] | 0 | 0 | 21 | 47 | > 20 |  |  | % inhibition of SMAD7 mRNA expression (human SMAD7 mRNA [2]; [5]): 46%
14 | 771576 (antisense eG*eG*eG*e[5mC]*eA*dG*dG*dA*dG*dA*dG*dA*d[5mC]*dA*d[5mC]*e[5mC]*eG*e[5mC]*eT*eT) [compound 771576] | 9 | 24 | 55 | 75 | 4 |  | 28 | % Inhibition (human SMAD7 mRNA [3]): 49%; % inhibition of SMAD7 mRNA expression (human SMAD7 mRNA [3]): 50%; % inhibition of SMAD7 mRNA expression (human SMAD7 mRNA [1]; 740 nM, Study 2, relative to untreated control cells): 0%; % inhibition of SMAD7 mRNA expression (human SMAD7 mRNA [1]; 2220 nM, Study 2): 23%; % inhibition of SMAD7 mRNA expression (human SMAD7 mRNA [1]; 6670.0 nM, Study 2): 23%; % inhibition of SMAD7 mRNA expression (human SMAD7 mRNA [1]; 20000.0 nM, Study 2): 22%; IC50 (human SMAD7 mRNA [1]; Study 2 (740-20000 nM)): > 20 µM; % Inhibition of SMAD7 mRNA (human SMAD7 mRNA [2]; [6]): 64%
15 | 771836 (antisense eT*eG*eT*eT*eG*dA*dG*dG*dA*d[5mC]*dT*d[5mC]*d[5mC]*d[5mC]*d[5mC]*eA*eG*e[5mC]*e[5mC]*eA) [compound 771836] | 6 | 25 | 22 | 41 | > 20 | 28 |  | 
16 | 771464 (antisense eG*eA*eG*eA*eG*dG*dG*d[5mC]*dT*d[5mC]*d[5mC]*dT*dG*dG*dA*e[5mC]*eA*e[5mC]*eA*eG) [compound 771464] | 11 | 8 | 21 | 50 | > 20 | 55 |  | 
17 | 771407 (antisense eA*eG*eG*eA*eG*d[5mC]*dG*dA*dA*d[5mC]*dA*dT*dG*dA*d[5mC]*e[5mC]*eT*e[5mC]*e[5mC]*eG) [compound 771407] | 17 | 0 | 30 | 46 | > 20 | 59 |  | 
